# Assay results published in patent US20090258786A1, “Controlled release agricultural products and processes for making the same” (priority 2000, published 2009).
# Experiment: Controlled release soil test (irrigated soil burial test)
# Format: physicochemical
# Text: To measure the relative solubilities of the products in soil, an irrigated soil burial test was devised such that granules could be retrieved for measurement of their nitrogen content. The following is a description of the test.
# Procedure for Controlled Release Soil Test
# 1. Screen the sample to obtain −6+7 Tyler mesh granules for the test.
# 4. Place 300 g of potting soil with a 40% moisture content into the container and record the weight.
# 7. Spread 5 grams of −6+7 Tyler mesh granules over the screen in a single layer and record the weight.
# 13. Mist 4 g of water into each container and immediately place the lid on container and seal.
# 14. After the fertilizer granules have been submerged in a humid soil environment for the allotted time (9 hours, 24 hours, and 3 days), the 150 g of soil is removed from the container.
# 18. Place the fertilizer granules in a laboratory oven to dry at low temperature (50° C.) for 13 hours.
# 20. Place the dry fertilizer sample into a 125 mL plastic sample bottle containing 20 g of de-ionized water.
# 21. Allow the sample to dissolve for 3 hours.
# 22. Place approximately 1 ml aliquot of the sample solution onto the sample stage of a refractometer(e.g., Abbe Refractometer).
# 23. Record the refractive index and temperature of the solution.
# 24. Calculate the percent urea retained from the original fertilizer sample.
compound,measurement,value
"NC(N)=O [plain urea, urea]","time in which particles went into solution, soil test",≤ 9 h
